In patent US7776859B2, “Hexahydroimidazopyrazin-3-one compounds useful as modulators of androgen receptor function” (Bristol-Myers Squibb Company, priority 2005, dated 2010):

How the values were obtained:
AR = target: T1, AR (Rattus norvegicus, UniProt P15207)
T1 sequence (P15207 1-902): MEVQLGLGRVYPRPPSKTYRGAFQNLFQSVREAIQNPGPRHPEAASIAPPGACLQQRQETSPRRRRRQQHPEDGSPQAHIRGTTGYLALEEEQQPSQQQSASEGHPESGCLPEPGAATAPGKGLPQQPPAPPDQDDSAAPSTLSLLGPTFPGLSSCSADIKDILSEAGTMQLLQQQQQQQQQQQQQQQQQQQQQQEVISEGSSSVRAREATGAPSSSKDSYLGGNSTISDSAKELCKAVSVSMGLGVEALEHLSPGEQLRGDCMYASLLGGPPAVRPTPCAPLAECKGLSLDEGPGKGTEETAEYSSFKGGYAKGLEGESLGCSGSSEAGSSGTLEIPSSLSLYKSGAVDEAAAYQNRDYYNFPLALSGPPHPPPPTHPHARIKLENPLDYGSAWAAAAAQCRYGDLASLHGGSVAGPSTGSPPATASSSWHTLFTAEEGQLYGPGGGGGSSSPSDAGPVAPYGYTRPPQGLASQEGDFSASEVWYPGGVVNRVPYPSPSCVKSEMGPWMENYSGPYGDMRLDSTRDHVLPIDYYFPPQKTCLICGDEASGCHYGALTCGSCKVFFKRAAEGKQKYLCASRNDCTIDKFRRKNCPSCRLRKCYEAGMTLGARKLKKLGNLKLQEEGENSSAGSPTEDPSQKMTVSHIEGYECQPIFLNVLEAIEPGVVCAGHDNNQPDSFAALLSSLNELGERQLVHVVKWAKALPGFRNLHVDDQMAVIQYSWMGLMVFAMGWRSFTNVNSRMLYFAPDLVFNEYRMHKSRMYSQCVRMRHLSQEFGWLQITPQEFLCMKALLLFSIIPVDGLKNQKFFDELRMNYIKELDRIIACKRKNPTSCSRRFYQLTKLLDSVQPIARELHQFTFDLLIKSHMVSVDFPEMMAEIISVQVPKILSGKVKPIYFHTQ

[1] = test system: wild type AR (MDA 453 cells); details: read-out: Kd for [3H]-DHT; MDA 453 cells (wild type AR), Scatchard analysis of specific binding
Method: For the saturation analysis, the difference between the total binding and the non-specific binding, is defined as specific binding.
Two replicates are used for each sample. After 4 hours at 37° C., cells are washed, harvested, and counted as described above. […] The K1 values are determined by application of the Cheng-Prusoff equation to the IC50 values, where:
[formula] After correcting for non-specific binding, IC50 values are determined.

With `CCC(=O)O[C@H]1CC[C@H]2[C@@H]3CCC4=CC(=O)CC[C@]4(C)[C@H]3CC[C@]12C` [TP, testosterone propionate] the “potency relative to free T” value (AR; TP versus free T, organ weight increase) was 10-30 fold and the “EC50 (increase in organ weight, VP and SV)” value (AR; immature castrated rats, dosed for 3 days) was ~0.03 mg.

“tritiated dihydrotestosterone [[^3H]-DHT]” gave a Kd [1] of 0.7 nM.
